{"source": "patent US9738631B2", "about": "“Compositions and methods for the treatment of neurological disorders” (CELLIXBIO PRIVATE LIMITED, priority 2012, dated 2017)", "key": {"[1]": {"assay": "Pharmacokinetic profiles over 24 hours in normal and diabetic rats (toxicokinetic study)", "format": "in vivo, Sprague Dawely rats", "settings": "for reduction of AUC0-24 by diabetes / reduction of AUC0-inf by diabetes / reduction of Cmax by diabetes: streptozotocin-diabetic rats", "description": "Toxicokinetic Effects of Carbamazepine and Formula (1-2) in Diabetic Rats […] Animals were divided into […], normal and diabetic sets; each set was divided into control and three-treated groups where rats received orally carbamazepine and formula (1-2) in dose levels of 100 and 200 mg/kg once daily for 28 days. The pharmacokinetic profiles were carried out over a period of 24 hours. The liver functions were evaluated by the determination of albumin, ALT and AST plasma levels and kidney functions were determined by creatinine and urea. Histopathology of rat's livers and kidneys were also investigated. Carbamazepine plasma levels were determined by a validated HPLC method."}, "[2]": {"system": "adult male Sprague Dawely rats", "assay": "Liver and kidney functions (albumin, ALT, AST, creatinine, urea) after 28 days oral dosing", "format": "in vivo", "description": "Toxicokinetic Effects of Carbamazepine and Formula (1-2) in Diabetic Rats\nDiabetes was induced in adult male Sprague Dawely rats by streptozotocin (60 mg/kg, ip). Animals were divided into […], normal and diabetic sets; each set was divided into control and three-treated groups where rats received orally carbamazepine and formula (1-2) in dose levels of 100 and 200 mg/kg once daily for 28 days. The pharmacokinetic profiles were carried out over a period of 24 hours. The liver functions were evaluated by the determination of albumin, ALT and AST plasma levels and kidney functions were determined by creatinine and urea. Histopathology of rat's livers and kidneys were also investigated. Carbamazepine plasma levels were determined by a validated HPLC method."}, "[3]": {"settings": "treated groups, 100 and 200 mg/kg orally once daily for 28 days, P<0.05"}}}
{"smiles": "NC(=O)N1c2ccccc2C=Cc2ccccc21", "note": "[carbamazepine, Carbamazepine]", "values": [{"measurement": "reduction of AUC0-24 by diabetes", "setting": "[1]; carbamazepine 100 mg/kg orally", "value": 13.6, "unit": "%"}, {"measurement": "reduction of AUC0-inf by diabetes", "setting": "[1]; carbamazepine 100 mg/kg orally", "value": 22.8, "unit": "%"}, {"measurement": "reduction of Cmax by diabetes", "setting": "[1]; carbamazepine 100 mg/kg orally", "value": 6.8, "unit": "%"}, {"measurement": "reduction of AUC0-24 by diabetes", "setting": "[1]; carbamazepine 200 mg/kg orally", "value": 12.2, "unit": "%"}, {"measurement": "reduction of AUC0-inf by diabetes", "setting": "[1]; carbamazepine 200 mg/kg orally", "value": 32.8, "unit": "%"}, {"measurement": "reduction of Cmax by diabetes", "setting": "[1]; carbamazepine 200 mg/kg orally", "value": 20.3, "unit": "%"}, {"measurement": "effect of diabetes on the rate and extent of absorption", "setting": "[1]; diabetic rats, P<0.05", "value": "significantly altered"}, {"measurement": "elevation of liver enzymes, urea and creatinine in diabetic rats compared with normal rats", "setting": "[2]; diabetic rats", "value": "more pronounced in diabetic rats"}, {"measurement": "Liver enzymes levels", "setting": "[2]; [3]", "value": "significantly elevated"}, {"measurement": "creatinine levels", "setting": "[2]; [3]", "value": "significantly elevated"}, {"measurement": "urea levels", "setting": "[2]; [3]", "value": "significantly elevated"}]}
